Measurements: US9766249B2, “Compositions and methods for prediction of drug sensitivity, resistance, and disease progression” (BioMarker Strategies, LLC, priority 2010, dated 2017)
“Also recorded” adds a separate entry of the source. Where two headings read alike, the source gives them in different places.

What was measured:
SK-MEL-31 [1] = details: BRAF-wt, RAS-wt; cited from earlier work
SK-MEL-28 [2] = details: BRAF-mut (V600E); cited from earlier work
RPMI-7951 [3] = details: BRAF-mut (V600E), COT Amplification; cited from earlier work
melanoma = details: phase I and II clinical trials; cited from earlier work
SK-MEL-28 [4] = test: EGF stimulation in the presence of PLX-4702 or U0126 (FIGS. 33 and 34); assay type: cell-based
Description: (§1) Protein levels measured include pAKT, pErk, pMEK.

RPMI-7951 [5] = test: PDGFRβ activation in the absence or presence of U0126 or PLX-4702 (FIG. 36); assay type: cell-based
Description: as §1

[6] = test system: Breast Cancer Cell lines (BT-474, MDA-MD-231, SKBR3, HCC-1937, BT-20, T47D, MCF-7, BT-549); details: EGF 200 ng/ml with U0126 1 μM
Experimental: Breast Cancer Cell lines (BT-474, MDA-MD-231, SKBR3, HCC-1937, BT-20, T47D, MCF-7, BT-549) are propagated and removed from the plate by gentle scraping to simulate a FNA biopsy sample. Following removal, the cells were placed on the SnapPath™ live-tumor-cell processing platform (BioMarker Strategies, LLC) to evoke ex vivo biomarkers. SnapPath™ disperses the sample, enriches for tumor cells, aliquots into test wells, and applies ex vivo stimulation by EGF (200 ng/ml) in the presence or absence of the MEK inhibitor, U0126 (1 μM). Cell lysates are then analyzed using the BioPlex platform for the following phosphoproteins: p-Erk 1/2, p-AKT, p-EGFR, p-Stat3 (BioRad). Functional profiles are generated for each cell line based on the levels of phosphoproteins.

SK-MEL-28 cells = details: MEK inhibition, absence of EGF stimulation
Description: (§2) Protein levels measured include pAKT, pErk, pGSK3β, pP70S6k, pSTAT3, and pEGFR.

SK-MEL-28 [7] = details: MEK inhibition of PDGFβ stimulation
Description: as §2

SK-MEL-2 = details: MEK inhibition of PDGFβ stimulation
Description: as §2

SK-MEL-31 cells = details: MEK inhibition, absence of EGF stimulation
Description: as §2

RPMI-7951 [8] = test: PDGFβ stimulation and MEK inhibition of PDGFβ stimulation (FIGS. 23 and 24); assay type: cell-based; details: MEK inhibition of PDGFβ stimulation
RPMI-7951 cells = test: EGF stimulation and PLX or MEK inhibition (FIG. 35); assay type: cell-based
Description: Protein levels measured include pAKT, pErk, pMEK and pEGFR.

SK-MEL-21 = details: MEK inhibition of PDGFβ stimulation
BT474 = test: EGF stimulation, phosphoprotein modulation score (BioPlex bead-immunoassay); assay type: cell-based; details: 200 ng/ml EGF 5 minutes
Experimental: (§3) Breast cancer cell lines (MCF-7, HCC-1937, MDA-MB-231, BT474, and SKBR3) are exposed to either vehicle (control) or stimulated with 200 ng/ml epidermal growth factor (EGF) for 5 minutes then lysed and proteins extracted. Mean Fluorescence Intensity (MFI) levels of six phosphoproteins (pEGFR, pErk, pAKT, pP70S6K, pGSK3β, and pSTAT3) are determined in sextuplet using a multiplexed bead-immunoassay (BioPlex, BioRad) and a modulation score (MS), defined as the log 2 (MFI stimulated/MFI control), calculated for each. Scores are ranked by percentile relative to the median (0.66) and inter-quartile range (IQR) (1.54). Moderate responders are classified as those with MS between the 75th percentile (2.20) and the 75th percentile plus the IQR (3.74). High responders are those MS>3.74. Low responders are those MS falling between the IQR and 75th percentile (1.54-2.20) whereas non responders are classified as MS<1.54.

HCC-1937 = test: as above; assay type: cell-based; details: 200 ng/ml EGF 5 minutes
Experimental: as §3

MCF-7 cells = test: as above; assay type: cell-based; details: 200 ng/ml EGF 5 minutes
Experimental: as §3

SKBR3 = test: as above; assay type: cell-based; details: 200 ng/ml EGF 5 minutes
Experimental: as §3

[9] = test system: Breast cancer cell lines (MCF-7, HCC-1937, MDA-MB-231, BT474, and SKBR3); test: EGF stimulation, phosphoprotein modulation score, cell line panel; assay type: cell-based; details: 200 ng/ml EGF 5 minutes
Experimental: as §3

RPMI-7951 [10] = test: Melanoma functional signaling profile upon EGF stimulation (FIG. 15); assay type: cell-based
Experimental: (§4) Protein levels are measured for pAKT, pERK, pGSK3, p70S6K, pSTAT, pEGFR in RPMI-7951, SK-MEL 2, SK-MEL 28, and SK-MEL 31 cells. Fold changes are calculated for protein level before and after EGF stimulation.

SK-MEL-31 [11] = test: as above; assay type: cell-based
Experimental: as §4

## CCCS(=O)(=O)Nc1ccc(F)c(C(=O)c2c[nH]c3ncc(-c4ccc(Cl)cc4)cc23)c1F [PLX-4032]
SK-MEL-31 [1]
  PLX-4032 Phenotype: resistance; also recorded: Resistant
SK-MEL-28 [2]
  PLX-4032 Phenotype: Sensitive
RPMI-7951 [3]
  PLX-4032 Phenotype: resistance; also recorded: Resistant
melanoma
  response rate: remarkable response rate

## CCCS(=O)(=O)Nc1ccc(F)c(C(=O)c2c[nH]c3ncc(Cl)cc23)c1F [PLX-4702]
SK-MEL-28 [4]; PLX inhibition plus EGF stimulation
  pERk expression: reduced
RPMI-7951 [5]; presence of PLX-4702
  pMEK: down-regulated

## N#CC(=C(/N)Sc1ccccc1N)/C(C#N)=C(\N)Sc1ccccc1N [U0126]
[6]; another functional group
  pAKT phosphorylation level: unanticipated up-regulation of p-AKT
[6]; one functional group
  pAKT phosphorylation level: low levels of p-AKT inhibition
  pEGFR phosphorylation level: low p-EGFR inhibition
[6]; other functional group
  pEGFR phosphorylation level: unanticipated up-regulation of p-EGFR
SK-MEL-28 cells
  pEGFR: activated
  pErk: inhibited
SK-MEL-28 [7]
  reduction of pErk: approximately 50%
SK-MEL-2
  pErk: not impacted
SK-MEL-31 cells
  pAkt: upregulated
  pErk: inhibited
RPMI-7951 [8]
  reduction of pErk: approximately 50%
SK-MEL-28 [4]; MEK inhibitor and EGF
  pMEK: increased
RPMI-7951 cells; EGF stimulation, MEK inhibition
  pErk: decreased
RPMI-7951 [5]; MEK inhibition
  pMEK down-regulation: less effective
SK-MEL-21
  reduction of pErk: approximately 50%

## epidermal growth factor [EGF]
BT474
  EGFR-phosphorylation MS: 2.57
HCC-1937
  MS for pErk: 2.89
MCF-7 cells
  STAT-3 phosphorylation MS: 2.34
MCF-7 cells; MS = log 2 (MFI stimulated/MFI control)
  MS for pErk: 3.92
SKBR3
  pAKT MS: 1.78
[9]; all cells except BT474
  EGFR-phosphorylation response class: high
[9]; all five cell lines
  pGSK3β MS: < 1.0
  pP70S6K MS: < 1.0
[9]; markers not named individually
  MS of all other markers across the five cell lines: < 1.54
[9]; other lines tested (not MCF-7, HCC-1937)
  pErk response class: none
RPMI-7951 [10]
  induction of pEGFR: highest induction
SK-MEL-31 [11]
  induction of pEGFR: highest induction
RPMI-7951 cells; all EGF modulation
  pEGFR: dramatically increased
